Assay results taken from ChEMBL document CHEMBL1909046, “DrugMatrix in vitro pharmacology data”.

Assays:
[1] = target: C-C chemokine receptor type 5 (Homo sapiens, UniProt P51681); type: cell membranes, Membrane; settings: hek293; further: in other assays of this panel Not Active means under 50% inhibition at 10 µM
[2] = target: Sigma non-opioid intracellular receptor 1 (Homo sapiens, UniProt Q99720); assay: DRUGMATRIX: Sigma1 radioligand binding (ligand: [3H] Haloperidol); type: cell membranes, Jurkat, Membrane; settings: Not Active = under 50% inhibition at 10 µM
[3] = target: T1, Nitric oxide synthase, inducible (Mus musculus, UniProt P29477); set-up: species or system Escherichia coli;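 further: inhibition of iNOS enzyme activity measured with L-arginine as substrate; in other assays of this panel Not Active means under 50% inhibition at 10 µM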
T1 sequence (P29477 whole entry): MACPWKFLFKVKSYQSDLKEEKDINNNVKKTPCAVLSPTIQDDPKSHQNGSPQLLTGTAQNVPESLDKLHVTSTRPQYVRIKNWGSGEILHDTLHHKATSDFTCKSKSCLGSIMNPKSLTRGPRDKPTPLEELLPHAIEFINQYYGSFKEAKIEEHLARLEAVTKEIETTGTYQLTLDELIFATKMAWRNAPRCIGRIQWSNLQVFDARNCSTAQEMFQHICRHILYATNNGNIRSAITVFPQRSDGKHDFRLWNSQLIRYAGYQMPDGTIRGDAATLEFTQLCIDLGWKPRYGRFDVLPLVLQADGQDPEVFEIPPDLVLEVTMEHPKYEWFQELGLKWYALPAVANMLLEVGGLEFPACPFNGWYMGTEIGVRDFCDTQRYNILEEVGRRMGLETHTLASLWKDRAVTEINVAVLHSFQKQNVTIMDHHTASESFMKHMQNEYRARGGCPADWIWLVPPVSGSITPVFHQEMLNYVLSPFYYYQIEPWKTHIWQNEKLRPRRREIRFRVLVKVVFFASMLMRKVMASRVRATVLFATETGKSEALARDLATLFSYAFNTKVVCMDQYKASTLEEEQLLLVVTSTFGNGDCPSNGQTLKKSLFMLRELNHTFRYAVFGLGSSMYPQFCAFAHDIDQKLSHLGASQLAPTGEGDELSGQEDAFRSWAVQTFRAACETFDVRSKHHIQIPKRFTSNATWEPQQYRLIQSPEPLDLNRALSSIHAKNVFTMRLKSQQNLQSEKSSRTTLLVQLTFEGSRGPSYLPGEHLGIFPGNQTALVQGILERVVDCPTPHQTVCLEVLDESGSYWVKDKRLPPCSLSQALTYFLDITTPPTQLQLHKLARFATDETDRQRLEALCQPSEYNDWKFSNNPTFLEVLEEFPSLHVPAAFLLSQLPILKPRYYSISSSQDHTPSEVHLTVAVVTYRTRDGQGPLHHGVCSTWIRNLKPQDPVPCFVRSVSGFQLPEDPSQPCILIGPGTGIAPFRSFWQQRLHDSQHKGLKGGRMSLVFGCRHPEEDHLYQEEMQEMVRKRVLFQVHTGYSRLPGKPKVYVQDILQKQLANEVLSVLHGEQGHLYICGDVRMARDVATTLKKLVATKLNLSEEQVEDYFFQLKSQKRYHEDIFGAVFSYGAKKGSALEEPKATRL

[4] = target: T2, Leukotriene C4 synthase (Cavia porcellus, UniProt A6XA80); assay: biochemical; type: tissue-based, Lung;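 further: enzyme inhibition assay of leukotriene C4 synthase, using LTA4 as the substrate; in other assays of this panel Not Active means under 50% inhibition at 10 µM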
T2 sequence (A6XA80 whole entry): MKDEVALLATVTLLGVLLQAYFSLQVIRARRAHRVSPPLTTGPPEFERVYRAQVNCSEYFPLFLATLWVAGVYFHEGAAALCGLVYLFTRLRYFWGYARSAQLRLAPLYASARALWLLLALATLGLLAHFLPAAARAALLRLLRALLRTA

[5] = target: 5-hydroxytryptamine receptor 6 (Homo sapiens, UniProt P50406); type: cell membranes, HeLa, Membrane; settings: hela; further: in other assays of this panel Not Active means under 50% inhibition at 10 µM
[6] = target: Vascular endothelial growth factor receptor 1 (Homo sapiens, UniProt P17948); type: cell-based; settings: huvec; further: in other assays of this panel Not Active means under 50% inhibition at 10 µM
[7] = target: Acetylcholinesterase (Homo sapiens, UniProt P22303); assay: DRUGMATRIX: Acetylcholinesterase enzyme inhibition (substrate: acetylthiocholine); type: cell-based, HEK293; settings: hek293; Not Active = under 50% inhibition at 10 µM
[8] = target: T3, 3-hydroxy-3-methylglutaryl-coenzyme A reductase (Homo sapiens, UniProt P04035); set-up: species or system Escherichia coli
T3 sequence (P04035 whole entry): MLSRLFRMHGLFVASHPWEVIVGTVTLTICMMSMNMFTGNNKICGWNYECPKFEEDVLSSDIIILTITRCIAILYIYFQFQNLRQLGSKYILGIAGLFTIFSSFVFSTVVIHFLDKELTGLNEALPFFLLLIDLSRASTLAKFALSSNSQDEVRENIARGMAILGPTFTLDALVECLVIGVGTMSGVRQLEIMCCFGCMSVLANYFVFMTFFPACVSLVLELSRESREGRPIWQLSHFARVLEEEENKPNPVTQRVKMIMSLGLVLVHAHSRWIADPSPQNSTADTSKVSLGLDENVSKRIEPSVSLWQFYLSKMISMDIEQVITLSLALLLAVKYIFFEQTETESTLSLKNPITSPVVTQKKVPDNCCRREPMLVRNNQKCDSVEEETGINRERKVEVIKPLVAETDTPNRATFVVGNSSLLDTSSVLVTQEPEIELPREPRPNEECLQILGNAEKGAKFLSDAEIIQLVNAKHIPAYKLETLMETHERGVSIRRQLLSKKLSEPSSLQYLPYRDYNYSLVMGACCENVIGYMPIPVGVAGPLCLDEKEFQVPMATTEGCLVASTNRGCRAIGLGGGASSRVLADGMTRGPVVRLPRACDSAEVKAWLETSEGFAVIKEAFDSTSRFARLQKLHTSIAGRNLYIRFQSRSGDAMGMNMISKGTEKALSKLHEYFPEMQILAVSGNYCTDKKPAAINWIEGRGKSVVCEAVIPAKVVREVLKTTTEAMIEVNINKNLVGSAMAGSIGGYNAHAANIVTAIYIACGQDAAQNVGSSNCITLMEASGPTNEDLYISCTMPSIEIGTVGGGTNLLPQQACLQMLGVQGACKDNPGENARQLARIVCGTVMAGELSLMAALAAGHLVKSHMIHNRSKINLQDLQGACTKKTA

[9] = target: D(3) dopamine receptor (Homo sapiens, UniProt P35462); assay: DRUGMATRIX: Dopamine D3 radioligand binding (ligand: [3H] Spiperone); type: cell membranes, CHO, Membrane; settings: cho
[10] = DRUGMATRIX: Atrial Natriuretic Factor (ANF) radioligand binding (ligand: [125I] ANF (rat)); type: cell membranes, Cavia porcellus, Dunkin-Hartley, Adrenal gland, Membrane; settings: Not Active = under 50% inhibition at 10 µM

Sequence of D(3) dopamine receptor (P35462 whole entry): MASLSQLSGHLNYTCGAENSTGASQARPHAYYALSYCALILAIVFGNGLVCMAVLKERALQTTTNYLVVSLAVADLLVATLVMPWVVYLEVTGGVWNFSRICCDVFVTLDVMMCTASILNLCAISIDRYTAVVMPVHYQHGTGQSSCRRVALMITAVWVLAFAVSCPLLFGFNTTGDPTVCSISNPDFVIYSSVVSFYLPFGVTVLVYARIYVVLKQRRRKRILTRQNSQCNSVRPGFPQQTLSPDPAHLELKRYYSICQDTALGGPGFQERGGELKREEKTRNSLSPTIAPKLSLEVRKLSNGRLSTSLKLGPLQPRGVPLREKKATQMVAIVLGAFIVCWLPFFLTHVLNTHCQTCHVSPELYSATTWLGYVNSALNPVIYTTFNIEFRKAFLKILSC
Sequence of Sigma non-opioid intracellular receptor 1 (Q99720 whole entry): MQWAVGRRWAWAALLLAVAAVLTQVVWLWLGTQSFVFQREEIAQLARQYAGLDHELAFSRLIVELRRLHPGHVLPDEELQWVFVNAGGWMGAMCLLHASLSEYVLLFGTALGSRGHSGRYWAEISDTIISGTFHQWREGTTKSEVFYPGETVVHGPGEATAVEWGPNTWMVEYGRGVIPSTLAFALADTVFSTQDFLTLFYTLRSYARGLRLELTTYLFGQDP
Sequence of 5-hydroxytryptamine receptor 6 (P50406 whole entry): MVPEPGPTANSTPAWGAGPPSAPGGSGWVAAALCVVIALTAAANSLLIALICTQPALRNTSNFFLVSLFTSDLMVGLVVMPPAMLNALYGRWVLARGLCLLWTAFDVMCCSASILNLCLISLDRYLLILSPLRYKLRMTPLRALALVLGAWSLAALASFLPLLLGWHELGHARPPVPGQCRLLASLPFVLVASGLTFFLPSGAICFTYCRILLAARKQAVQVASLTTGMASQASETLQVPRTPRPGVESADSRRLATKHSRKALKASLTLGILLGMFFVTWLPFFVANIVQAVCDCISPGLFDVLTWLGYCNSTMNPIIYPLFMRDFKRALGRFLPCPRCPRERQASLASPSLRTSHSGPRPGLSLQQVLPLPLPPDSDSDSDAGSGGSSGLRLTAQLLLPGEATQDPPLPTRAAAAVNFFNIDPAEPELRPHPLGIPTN
Sequence of Acetylcholinesterase (P22303 whole entry): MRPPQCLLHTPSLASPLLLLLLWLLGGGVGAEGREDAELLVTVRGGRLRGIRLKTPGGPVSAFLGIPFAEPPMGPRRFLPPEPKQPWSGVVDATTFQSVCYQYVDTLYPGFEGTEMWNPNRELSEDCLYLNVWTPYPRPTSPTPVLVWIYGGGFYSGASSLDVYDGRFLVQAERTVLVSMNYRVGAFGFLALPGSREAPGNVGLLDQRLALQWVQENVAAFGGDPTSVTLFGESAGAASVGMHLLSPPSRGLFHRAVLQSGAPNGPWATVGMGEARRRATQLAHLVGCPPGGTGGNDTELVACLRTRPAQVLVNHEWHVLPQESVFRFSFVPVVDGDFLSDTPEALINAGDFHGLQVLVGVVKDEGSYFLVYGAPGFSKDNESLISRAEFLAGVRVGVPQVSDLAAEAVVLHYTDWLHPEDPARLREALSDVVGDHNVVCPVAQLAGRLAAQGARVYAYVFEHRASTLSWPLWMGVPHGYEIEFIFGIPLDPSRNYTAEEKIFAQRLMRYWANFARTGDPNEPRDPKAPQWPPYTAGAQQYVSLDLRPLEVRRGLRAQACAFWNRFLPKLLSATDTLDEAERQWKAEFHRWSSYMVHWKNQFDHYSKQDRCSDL
Sequence of Vascular endothelial growth factor receptor 1 (P17948 whole entry): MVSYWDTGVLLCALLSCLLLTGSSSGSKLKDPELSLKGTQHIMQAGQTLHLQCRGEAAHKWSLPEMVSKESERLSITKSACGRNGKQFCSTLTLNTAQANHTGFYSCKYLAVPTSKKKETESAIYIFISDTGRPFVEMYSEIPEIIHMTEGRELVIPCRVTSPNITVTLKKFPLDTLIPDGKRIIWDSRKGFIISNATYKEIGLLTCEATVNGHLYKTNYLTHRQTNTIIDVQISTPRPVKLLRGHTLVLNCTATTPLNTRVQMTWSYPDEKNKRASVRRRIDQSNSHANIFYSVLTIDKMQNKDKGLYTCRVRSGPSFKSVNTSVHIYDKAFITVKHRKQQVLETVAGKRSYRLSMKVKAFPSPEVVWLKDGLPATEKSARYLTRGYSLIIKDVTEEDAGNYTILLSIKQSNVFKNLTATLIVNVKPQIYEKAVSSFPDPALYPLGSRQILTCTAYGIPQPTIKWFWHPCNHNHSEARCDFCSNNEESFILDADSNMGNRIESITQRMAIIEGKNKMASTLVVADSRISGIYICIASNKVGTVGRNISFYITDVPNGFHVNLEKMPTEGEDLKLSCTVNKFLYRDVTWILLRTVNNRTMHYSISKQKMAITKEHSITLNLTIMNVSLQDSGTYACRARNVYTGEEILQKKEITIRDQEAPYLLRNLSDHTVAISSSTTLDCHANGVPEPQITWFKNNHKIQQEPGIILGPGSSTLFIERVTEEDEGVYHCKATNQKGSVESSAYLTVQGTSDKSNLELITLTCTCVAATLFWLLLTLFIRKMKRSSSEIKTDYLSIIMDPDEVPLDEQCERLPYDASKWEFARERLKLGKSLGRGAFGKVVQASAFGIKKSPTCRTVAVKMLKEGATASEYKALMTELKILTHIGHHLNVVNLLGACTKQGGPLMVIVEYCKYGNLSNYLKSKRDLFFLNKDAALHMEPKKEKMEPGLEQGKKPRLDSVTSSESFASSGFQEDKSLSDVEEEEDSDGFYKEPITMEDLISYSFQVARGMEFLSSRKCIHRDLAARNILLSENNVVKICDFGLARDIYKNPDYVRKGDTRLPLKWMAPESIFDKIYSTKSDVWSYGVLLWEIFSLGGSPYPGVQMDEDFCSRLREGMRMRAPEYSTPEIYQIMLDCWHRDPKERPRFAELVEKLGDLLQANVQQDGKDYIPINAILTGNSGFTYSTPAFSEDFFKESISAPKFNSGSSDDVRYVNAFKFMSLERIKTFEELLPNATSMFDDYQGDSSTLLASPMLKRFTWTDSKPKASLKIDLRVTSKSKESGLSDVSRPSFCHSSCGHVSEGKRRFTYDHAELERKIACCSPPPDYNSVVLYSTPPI
Sequence of C-C chemokine receptor type 5 (P51681 whole entry): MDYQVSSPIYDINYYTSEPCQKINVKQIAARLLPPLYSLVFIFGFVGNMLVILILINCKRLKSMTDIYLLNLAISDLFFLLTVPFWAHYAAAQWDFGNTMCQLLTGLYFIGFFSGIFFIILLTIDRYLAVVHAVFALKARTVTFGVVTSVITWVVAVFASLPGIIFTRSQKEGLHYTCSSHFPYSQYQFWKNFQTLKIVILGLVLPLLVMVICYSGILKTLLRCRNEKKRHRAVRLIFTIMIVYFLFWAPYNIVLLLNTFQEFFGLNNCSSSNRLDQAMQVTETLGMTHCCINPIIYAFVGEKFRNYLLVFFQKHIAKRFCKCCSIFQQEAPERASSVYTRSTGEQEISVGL

Compound | IC50 [1] | IC50 ([2]; jurkat) | IC50 [3] | IC50 [4] | IC50 [5] | IC50 [6] | IC50 [7] | IC50 [8] | IC50 [9] | IC50 [10] | Ki [10] | IC50 ([2]; read-out: IC50) [nM] | Ki ([2]; read-out: Ki) [nM]
COc1cc(C(=O)NC2CCCNC2)cc(OC)c1OC (centres undefined) [TROXIPIDE] | Not Active | Not Active | Not Active | Not Active | Not Active | Not Active | Not Active | Not Active | Not Active | Not Active | Not Active | – | –
CCC[C@@H]1C[C@@H](C(=O)N[C@@H]([C@H]2O[C@H](SC)[C@H](O)[C@@H](O)[C@H]2O)[C@@H](C)O)N(C)C1 [LINCOMYCIN] | Not Active | Not Active | Not Active | Not Active | Not Active | Not Active | Not Active | Not Active | Not Active | Not Active | Not Active | – | –
NNC(=O)c1ccncc1 [ISONIAZID] | Not Active | Not Active | Not Active | Not Active | Not Active | Not Active | Not Active | Not Active | Not Active | Not Active | Not Active | – | –
COC(=O)C1=C(C)NC(C)=C(C(=O)OC)C1c1ccccc1[N+](=O)[O-] [NIFEDIPINE] | Not Active | Not Active | Not Active | Not Active | Not Active | Not Active | Not Active | Not Active | Not Active | Not Active | Not Active | – | –
Cc1ncc([N+](=O)[O-])n1CC(C)O (centres undefined) [SECNIDAZOLE] | Not Active | Not Active | Not Active | Not Active | Not Active | Not Active | Not Active | Not Active | Not Active | Not Active | Not Active | – | –
COS(C)(=O)=O [METHANESULFONIC ACID METHYL ESTER] | Not Active | Not Active | Not Active | Not Active | Not Active | Not Active | Not Active | Not Active | Not Active | Not Active | Not Active | – | –
CC(C)(C)NCC(O)c1ccc(O)c(CO)c1 (centres undefined) [ALBUTEROL] | Not Active | Not Active | Not Active | Not Active | Not Active | Not Active | Not Active | Not Active | Not Active | Not Active | Not Active | – | –
Cc1ccc(C(=O)C(C)CN2CCCCC2)cc1 (centres undefined) [TOLPERISONE] | Not Active | – | Not Active | Not Active | Not Active | Not Active | Not Active | Not Active | Not Active | Not Active | Not Active | 13 | 5.59
